{
  "source": "patent US20020064834A1",
  "about": "“Microbiological production method for alpha-L-aspartyl-L-phenylalanine” (priority 1999, published 2002)",
  "origin": "cited, not measured here",
  "conditions": "relative to sucrose",
  "note": "Residues, ends and D or L forms follow the SMILES beside them.",
  "data": [
    {"smiles": "COC(=O)[C@H](Cc1ccccc1)NC(=O)[C@@H](N)CC(=O)O", "note": "[APM, α-L-aspartyl-L-phenylalanine methyl ester] (H-Asp-Phe-OMe)", "values": [
      {"measurement": "sweetness as potent as the sweetness of sucrose", "value": "about 200 ×"}
    ]}
  ]
}
